From patent publication US11466013B2 (Betta Pharmaceuticals Co., LTD, priority 2018, dated 2022) come the findings set out here.

One assay has as its target ERK2 (Homo sapiens, UniProt P28482). The experiment in a line: Kinase assay (Caliper, FAM-labeled peptide), ERK2. It is filed as biochemical. The procedure:
(§1) The compound was diluted to the desired concentration with DMSO, transferred 100 μL to a 96-well plate, and performed a gradient dilution 10 μL of compound from each well was taken and mixed with 90 μL of kinase buffer, and then transferred 5 μL from each well to a 384-well plate. Kinase and FAM-labeled peptide and ATP were added to 1× kinase alkaline buffer to obtain 2.5× enzyme solution and 2.5× peptide solution, 10 μL of 2.5× enzyme solution was added to the 384-well assay plate. After incubating for 10 minutes at room temperature, 10 μL of 2.5× peptide solution was added to the 384-well plate. After reacting for a specific time at […], 25 μL of termination buffer was added to stop reaction. After reading the collected data on Caliper, the data was converted to inhibition percentage. Inhibition percentage=(maximum value−conversion value)/(maximum value−minimum value)*100.
(§2) The “maximum” is the DMSO control, the “minimum” indicates the low control.
(§3) Graphpad Prism software was used to perform curve fitting and obtain IC50 value.

In a further assay the target is ERK1 (Homo sapiens, UniProt P27361). The assay can be described thus: Kinase assay (Caliper, FAM-labeled peptide), ERK1. It is filed as biochemical. Here is the method:
as §1, §2, §3

Chain of ERK2 (P28482 whole entry): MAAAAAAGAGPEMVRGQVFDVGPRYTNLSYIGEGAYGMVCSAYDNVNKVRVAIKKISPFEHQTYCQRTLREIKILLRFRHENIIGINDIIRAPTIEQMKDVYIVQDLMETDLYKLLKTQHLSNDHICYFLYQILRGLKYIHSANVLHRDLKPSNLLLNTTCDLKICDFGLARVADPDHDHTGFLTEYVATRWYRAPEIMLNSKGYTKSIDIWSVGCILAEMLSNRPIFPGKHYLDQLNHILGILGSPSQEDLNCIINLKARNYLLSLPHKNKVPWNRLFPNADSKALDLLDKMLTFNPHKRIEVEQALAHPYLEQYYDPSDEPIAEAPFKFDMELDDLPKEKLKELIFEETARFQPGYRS
Chain of ERK1 (P27361 whole entry): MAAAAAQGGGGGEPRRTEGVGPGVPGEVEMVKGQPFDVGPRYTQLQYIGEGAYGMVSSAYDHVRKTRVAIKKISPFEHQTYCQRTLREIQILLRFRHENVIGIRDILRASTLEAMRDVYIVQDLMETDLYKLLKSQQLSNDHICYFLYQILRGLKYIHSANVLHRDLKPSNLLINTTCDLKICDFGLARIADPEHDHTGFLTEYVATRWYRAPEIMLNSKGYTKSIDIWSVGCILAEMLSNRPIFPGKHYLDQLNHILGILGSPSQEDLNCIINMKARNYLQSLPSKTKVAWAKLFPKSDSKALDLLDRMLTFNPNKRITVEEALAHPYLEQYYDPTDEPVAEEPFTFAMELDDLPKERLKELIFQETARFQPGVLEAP

As for `CC(C)Nc1cc(-c2c[nH]c(C(=O)NCc3ccccc3CO)c2)c(Cl)cn1` [Example 1, 4-(5-chloro-2-(isopropylamino)pyridin-4-yl)-N-(2-(hydroxymethyl)benzyl)-1H-pyrrole-2-methyl amide], the IC50 (usually the concentration that inhibits the measured activity by half) on ERK2 worked out at 3.4 nM; on ERK1, 3 nM. For the compound `CC(C)Nc1cc(-c2cnc(C(=O)NCc3ccccc3CO)s2)c(Cl)cn1` [Example 3, 5-(5-chloro-2-(isopropylamino)pyridin-4-yl)-N-(2-(hydroxymethyl)benzyl) thiazole-2-formamide], the values for the IC50 against ERK2 and at ERK1 were 0.7 nM and 0.9 nM, respectively. Take `CC(C)Nc1cc(-c2cnc(C(=O)NCc3ccc(F)cc3CO)s2)c(Cl)cn1` [Example 4, 5-(5-chloro-2-(isopropylamino)pyridin-4-yl)-N-(4-fluoro-2-(hydroxymethyl)benzyl) thiazole-2-formamide]: the IC50 at ERK2 and against ERK1 was 1.8 nM throughout. With `CC(C)Nc1cc(-c2cnc(C(=O)NCc3cccc(F)c3CO)s2)c(Cl)cn1` [Example 5, 5-(5-chloro-2-(isopropylamino)pyridin-4-yl)-N-(3-fluoro-2-(hydroxymethyl)benzyl) thiazole-2-formamide], the figures for the IC50 at ERK2 and against ERK1 were 1.2 nM and 1.5 nM, respectively. The like results for `CC(C)Nc1cc(-c2cc3n(c2)CCN(Cc2ccccc2CO)C3=O)c(Cl)cn1` [Example 14, 7-(5-chloro-2-(isopropylamino)pyridin-4-yl)-2-(2-(hydroxymethyl)benzyl)-3,4-dihydropyrrolo[1,2-a] pyrazine-1(2H)-one] were, in that order, 0.6 nM and 0.7 nM.

On to `CC(C)Nc1cc(-c2cc3n(c2)CCN(Cc2cc(F)c(F)cc2CO)C3=O)c(Cl)cn1` [Example 19, 7-(5-chloro-2-(isopropylamino)pyridine-4-yl)-2-(4,5-difluoro-2-(hydroxymethyl)benzyl)-3,4-dihydropyrrolo[1,2-a]pyrazine-1(2H)-one], for which the IC50 at ERK2 worked out at 0.6 nM; against ERK1, 0.3 nM. The corresponding values for `CC(C)Nc1cc(-c2cc3n(c2)CC2(CN(C)C2)CN(Cc2ccccc2CO)C3=O)c(Cl)cn1` [Example 25] are 0.84 nM and 1.3 nM. The like results for `CC(C)Nc1cc(-c2cc3n(c2)CC2(COC(C)(C)OC2)CN(Cc2ccccc2CO)C3=O)c(Cl)cn1` [Example 26, 8-(5-Chloro-2-(isopropylamino)pyridin-4-yl)-2-(2-(hydroxymethyl)benzyl)-2′,2′-dimethyl-2,3-dihydro-1H,5H-spiro[pyrrolo[1,2-a][1,4]diazepine-4,5′-[1,3]dioxane]-1-one] were, in that order, 1.4 nM and 1.3 nM. The like results for `CC(C)Nc1cc(-c2cc3n(c2)CC2(COC(C)(C)OC2)CN(Cc2cc(F)ccc2CO)C3=O)c(Cl)cn1` [Example 28, 8-(5-chloro-2-(isopropylamino)pyridin-4-yl)-2-(5-fluoro-2-(hydroxymethyl)benzyl)-2′,2′-dimethyl-2,3-dihydro-1h,5h-spiro[pyrrolo [1,2-a][1,4]diazepine-4,5′-[1,3]dioxane]-1-one] were, in that order, 1.6 nM and 0.9 nM. As for `O=C1c2cc(-c3cc(NC4COC4)ncc3Cl)cn2CCN1Cc1cc(F)ccc1CO` [Example 30, 7-(5-Chloro-2-(oxetan-3-ylamino)pyridin-4-yl)-2-(5-fluoro-2-(hydroxymethyl)benzyl)-3,4-dihydropyrrolo[1,2-a]pyrazine-1(2H)-one], the half-inhibitory concentration (IC50) on ERK2 was determined as 0.2 nM; against ERK1 it was 0.31 nM.

`O=C1c2cc(-c3cc(NC4CCOC4)ncc3Cl)cn2CCN1Cc1cc(F)ccc1CO` (stereo not drawn) [Example 31, 7-(5-Chloro-2-((tetrahydrofuran-3-yl)amino)pyridin-4-yl)-2-(5-fluoro-2-(hydroxymethyl)benzyl)-3,4-dihydropyrrolo[1,2-a]pyrazine-1(2H)-one]: the IC50 against ERK2 worked out at 0.32 nM; on ERK1 it was 0.3 nM. The corresponding values for `Cc1cnc(NC2COC2)nc1-c1cc2n(c1)CCN(Cc1cc(F)ccc1CO)C2=O` [Example 32, 2-(5-Fluoro-2-(hydroxymethyl)benzyl)-7-(5-methyl-2-(oxetan-3-ylamino)pyrimidine-4-yl)-3,4-dihydropyrrolo[1,2-a]pyrazine-1(2H)-one] are 0.27 nM and 0.44 nM. The like results for `COC[C@H]1Cn2cc(-c3cc(NC(C)C)ncc3Cl)cc2C(=O)N1Cc1cc(F)ccc1CO` [Example 34, (R)-7-(5-chloro-2-(isopropylamino)pyridin-4-yl)-2-(5-fluoro-2-(hydroxymethyl)benzyl)-3-(methoxymethyl)-3,4-dihydropyrrolo[1,2-a]pyrazine-1(2H)-one] were, in that order, 0.4 nM and 0.2 nM. The corresponding values for `CC(C)Nc1cc(-c2cc3n(c2)CC(CO)CN(Cc2cc(F)ccc2CO)C3=O)c(Cl)cn1` (stereo not drawn) [Example 42, 8-(5-chloro-2-(isopropylamino)pyridin-4-yl)-2-(5-fluoro-2-(hydroxymethyl)benzyl)-4-(hydroxymethyl)-2,3,4,5-tetrahydro-1H-pyrrolo[1,2-a][1,4]diazepine-1-one] are 1.6 nM and 2.5 nM. Turning to `CC(C)Nc1cc(-c2cc3n(c2)CC2(COCOC2)CN(Cc2cc(F)ccc2CO)C3=O)c(Cl)cn1` [Example 43, 8-(5-Chloro-2-(isopropylamino)pyridin-4-yl)-2-(5-fluoro-2-(hydroxymethyl)benzyl)-2,3-dihydro-1H,5H-spiro[pyrrolo[1,2-a][1,4]diazepine-4,5′-[1,3]dioxane]-1-one], the IC50 on ERK2 is 0.5 nM; at ERK1, 0.6 nM. The corresponding values for `COC[C@H]1Cn2cc(-c3cc(NC(C)C)ncc3Cl)nc2C(=O)N1Cc1cc(F)ccc1CO` [Example 46, (R)-2-(5-chloro-2-(isopropylamino)pyridin-4-yl)-7-(5-fluoro-2-(hydroxymethyl)benzyl)-6-(methoxymethyl)-6,7-dihydroimidazo[1,2-a]pyrazine-8-(5H)-one] are 1.4 nM and 2.8 nM.

For `COC[C@H]1Cn2cc(-c3c(Cl)cnc(Nc4ccnn4C)c3F)cc2C(=O)N1Cc1cc(F)ccc1CO` [Example 47, (H)-7-(5-chloro-3-fluoro-2-((1-methyl-1H-pyrazol-5-yl)amino)pyridin-4-yl)-2-(5-fluoro-2-(hydroxymethyl)benzyl)-3-(methoxymethyl)-3,4-dihydropyrrolo[1,2-a]pyrazine-1(2H)-ketone], the IC50 on ERK2 amounted to 0.9 nM. With `Cc1ccccc1Nc1ncc(C)c(-c2cc3n(c2)CCN(Cc2cc(F)ccc2CO)C3=O)n1` [Example 49], the IC50 at ERK2 is 0.8 nM; on ERK1, 0.9 nM. The corresponding values for `COCC1(CO)CN(Cc2cc(F)ccc2CO)C(=O)c2cc(-c3cc(NC(C)C)ncc3Cl)cn2C1` (stereo not drawn) [Example 56, 8-(5-chloro-2-(isopropylamino)pyridin-4-yl)-2-(5-fluoro-2-(hydroxymethyl)benzyl)-4-(hydroxymethyl)-4-(methoxymethyl)-2,3,4,5-4,5-tetrahydro-1h-pyrrolo [1,2-a][1,4]diazepine-1-one] are 0.64 nM and 0.95 nM. The corresponding values for `COC(=O)C1Cn2cc(-c3cc(NC(C)C)ncc3Cl)cc2C(=O)N1Cc1cc(F)ccc1CO` (stereo not drawn) [Example 57, Methyl 7-(5-chloro-2-(isopropylamino)pyridin-4-yl)-2-(5-fluoro-2-(hydroxymethyl)benzyl)-1-oxo-1,2,3,4-tetrahydropyrrolo [1,2-a]pyrazine-3-carboxylic acid ethyl ester] are 0.5 nM and 0.9 nM. The corresponding values for `CC(C)Nc1cc(-c2cc3n(c2)C[C@H](CO)N(Cc2cc(F)ccc2CO)C3=O)c(Cl)cn1` [Example 59, (R)-7-(5-chloro-2-(isopropylamino)pyridin-4-yl)-2-(5-fluoro-2-(hydroxymethyl)benzyl)-3-(hydroxymethyl)-3,4-dihydropyrrolo[1,2-a] pyrazine-1(2H)-one] are 0.49 nM and 0.51 nM. On to `COC[C@H]1Cn2cc(-c3cc(NC4COC4)ncc3Cl)cc2C(=O)N1Cc1cc(F)ccc1CO` [Example 60, (R)-7-(5-chloro-2-(oxacyclobutane-3-ylamino)pyridine-4-yl)-2-(5-fluoro-2-(hydroxymethyl)benzyl)-3-(methoxymethyl)-3,4-dihydropyrrolo[1,2-a] pyrazine-1(2H)-one], for which the results for the IC50 against ERK2 and on ERK1 were 0.46 nM and 0.54 nM, respectively. In the case of `COC[C@H]1Cn2cc(-c3cc(NC4CCOC4)ncc3Cl)cc2C(=O)N1Cc1cc(F)ccc1CO` (stereo partly drawn) [Example 61, (3R)-7-(5-chloro-2-((tetrahydrofuran-3-yl)amino)pyridine-4-yl)-2-(5-fluoro-2-(hydroxymethyl)benzyl)-3-(methoxymethyl)-3,4-dihydropyrrolo[1,2-a] pyrazine-1(2H)-one], the figures for the IC50 against ERK2 and at ERK1 were 0.41 nM and 0.38 nM, respectively. The corresponding values for `COC[C@H]1Cn2cc(-c3cc(NC4CC(F)(F)C4)ncc3Cl)cc2C(=O)N1Cc1cc(F)ccc1CO` [Example 63, (R)-7-(5-chloro-2-((3,3-difluorocyclobutyl)amino)pyridine-4-yl)-2-(5-fluoro-2-(hydroxymethyl)benzyl)-3-(methoxymethyl)-3,4-dihydropyrrolo[1,2-a] pyrazine-1(2H)-one] are 1.6 nM and 1.5 nM.

For the compound `COC[C@H]1Cn2cc(-c3cc(Nc4c(C)cnn4C)ncc3Cl)cc2C(=O)N1Cc1cc(F)ccc1CO` [Example 97, (R)-7-(5-chloro-2-((1,4-dimethyl-1h-pyrazole-5-yl)amino)pyridine-4-yl)-2-(5-fluoro-2-(hydroxymethyl)benzyl)-3-(methoxymethyl)-3,4-dihydropyrrolo[1,2-a] pyrazine-1(2H)-one], half-maximal inhibition on ERK2 (IC50) was put at 0.97 nM.
